For test [1], the target named is T1, p300 (Homo sapiens, UniProt Q09472).
T1 construct: host or cells: A549 P300 HiBit cells
In words: P300 degradation, HiBit technology in A549 P300 HiBit cells (2 h). In kind it is cell-based. The settings on record: 2 hrs post treatment; for Dmax: A549, A549 P300 HiBit cells; for DC50: A549 P300 HiBit cells. The method in brief: (§1)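 Cells: A549 HiBiT-tagged lines, 0.2×10^4/well, F-12K + 10% HI-FBS, equilibrated overnight. Tx: serial dilution of cpd (10 mM DMSO stock). Readout: HiBiT lytic reagent, 10 min RT shaking, luminescence → potency, Dmax.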
Background: With HiBiT, luminescence reflects the tagged protein that the partner subunit can reach.

Test [2] addresses T2, CBP (Homo sapiens, UniProt Q92793).
T2 construct: host or cells: A549 CBP HiBit cells
In words: CBP degradation, HiBit technology in A549 CBP HiBit cells (24 h). It is filed as cell-based. The note with it: 24 hrs post treatment. A digest of the protocol:
as §1

T2 sequence (Q92793 whole entry): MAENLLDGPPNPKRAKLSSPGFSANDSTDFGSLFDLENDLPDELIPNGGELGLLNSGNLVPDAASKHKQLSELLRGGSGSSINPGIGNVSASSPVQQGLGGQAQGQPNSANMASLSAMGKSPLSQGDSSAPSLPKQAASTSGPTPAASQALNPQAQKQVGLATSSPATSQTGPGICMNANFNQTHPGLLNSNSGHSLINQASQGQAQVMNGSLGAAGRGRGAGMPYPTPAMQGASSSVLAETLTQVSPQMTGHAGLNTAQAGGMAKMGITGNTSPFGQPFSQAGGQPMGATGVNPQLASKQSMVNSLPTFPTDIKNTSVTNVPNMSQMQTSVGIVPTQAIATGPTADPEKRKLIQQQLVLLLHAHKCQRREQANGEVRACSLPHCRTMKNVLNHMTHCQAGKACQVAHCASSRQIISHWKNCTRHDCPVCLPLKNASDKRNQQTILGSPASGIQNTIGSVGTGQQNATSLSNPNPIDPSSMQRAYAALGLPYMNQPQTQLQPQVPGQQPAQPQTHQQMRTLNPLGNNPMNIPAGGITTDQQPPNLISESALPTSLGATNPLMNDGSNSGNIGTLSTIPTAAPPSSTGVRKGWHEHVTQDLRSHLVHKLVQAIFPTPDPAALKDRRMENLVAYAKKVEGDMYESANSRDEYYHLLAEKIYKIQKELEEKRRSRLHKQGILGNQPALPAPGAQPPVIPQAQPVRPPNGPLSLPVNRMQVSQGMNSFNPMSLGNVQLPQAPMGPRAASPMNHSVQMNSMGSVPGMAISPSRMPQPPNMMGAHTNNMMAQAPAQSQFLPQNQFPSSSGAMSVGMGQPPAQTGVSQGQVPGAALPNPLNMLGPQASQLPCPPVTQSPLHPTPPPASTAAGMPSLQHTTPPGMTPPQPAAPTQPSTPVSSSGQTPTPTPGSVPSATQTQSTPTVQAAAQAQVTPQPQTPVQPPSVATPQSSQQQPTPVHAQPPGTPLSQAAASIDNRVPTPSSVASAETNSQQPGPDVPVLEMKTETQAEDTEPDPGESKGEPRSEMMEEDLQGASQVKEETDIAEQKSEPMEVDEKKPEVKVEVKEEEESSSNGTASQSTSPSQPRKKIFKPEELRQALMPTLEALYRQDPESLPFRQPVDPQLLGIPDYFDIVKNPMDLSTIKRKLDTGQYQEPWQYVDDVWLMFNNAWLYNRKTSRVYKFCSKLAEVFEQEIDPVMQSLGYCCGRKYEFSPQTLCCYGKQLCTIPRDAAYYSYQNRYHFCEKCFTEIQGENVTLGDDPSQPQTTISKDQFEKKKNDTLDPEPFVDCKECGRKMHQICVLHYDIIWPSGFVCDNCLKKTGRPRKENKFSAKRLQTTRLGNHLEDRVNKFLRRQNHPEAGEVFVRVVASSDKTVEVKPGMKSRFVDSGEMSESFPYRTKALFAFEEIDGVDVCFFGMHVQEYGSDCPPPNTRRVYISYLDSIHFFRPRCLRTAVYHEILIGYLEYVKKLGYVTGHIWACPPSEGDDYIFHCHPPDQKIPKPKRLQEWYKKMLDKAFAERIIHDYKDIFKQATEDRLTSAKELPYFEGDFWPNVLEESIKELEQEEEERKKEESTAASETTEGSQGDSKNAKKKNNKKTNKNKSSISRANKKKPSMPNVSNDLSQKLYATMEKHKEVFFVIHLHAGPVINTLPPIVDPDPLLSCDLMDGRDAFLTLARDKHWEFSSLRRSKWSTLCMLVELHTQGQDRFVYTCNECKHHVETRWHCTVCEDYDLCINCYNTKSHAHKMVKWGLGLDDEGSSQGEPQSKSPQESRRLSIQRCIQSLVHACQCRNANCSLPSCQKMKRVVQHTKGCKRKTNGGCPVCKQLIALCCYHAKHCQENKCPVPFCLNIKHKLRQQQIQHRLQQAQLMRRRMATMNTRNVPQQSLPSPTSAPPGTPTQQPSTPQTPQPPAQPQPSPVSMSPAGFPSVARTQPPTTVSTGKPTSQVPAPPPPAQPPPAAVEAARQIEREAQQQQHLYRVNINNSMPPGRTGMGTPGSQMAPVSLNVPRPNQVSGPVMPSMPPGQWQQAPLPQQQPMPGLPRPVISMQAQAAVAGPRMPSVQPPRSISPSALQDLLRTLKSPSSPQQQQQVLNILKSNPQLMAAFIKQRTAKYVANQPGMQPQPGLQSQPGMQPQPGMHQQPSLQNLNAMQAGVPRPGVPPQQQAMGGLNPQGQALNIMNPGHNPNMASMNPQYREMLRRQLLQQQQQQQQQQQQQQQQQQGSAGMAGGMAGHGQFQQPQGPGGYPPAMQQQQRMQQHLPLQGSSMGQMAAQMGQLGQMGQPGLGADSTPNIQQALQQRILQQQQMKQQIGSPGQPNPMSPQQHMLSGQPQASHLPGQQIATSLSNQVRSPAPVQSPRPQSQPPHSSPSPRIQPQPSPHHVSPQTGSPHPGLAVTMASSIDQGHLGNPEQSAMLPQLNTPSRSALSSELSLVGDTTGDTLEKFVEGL
T1 sequence (Q09472 whole entry): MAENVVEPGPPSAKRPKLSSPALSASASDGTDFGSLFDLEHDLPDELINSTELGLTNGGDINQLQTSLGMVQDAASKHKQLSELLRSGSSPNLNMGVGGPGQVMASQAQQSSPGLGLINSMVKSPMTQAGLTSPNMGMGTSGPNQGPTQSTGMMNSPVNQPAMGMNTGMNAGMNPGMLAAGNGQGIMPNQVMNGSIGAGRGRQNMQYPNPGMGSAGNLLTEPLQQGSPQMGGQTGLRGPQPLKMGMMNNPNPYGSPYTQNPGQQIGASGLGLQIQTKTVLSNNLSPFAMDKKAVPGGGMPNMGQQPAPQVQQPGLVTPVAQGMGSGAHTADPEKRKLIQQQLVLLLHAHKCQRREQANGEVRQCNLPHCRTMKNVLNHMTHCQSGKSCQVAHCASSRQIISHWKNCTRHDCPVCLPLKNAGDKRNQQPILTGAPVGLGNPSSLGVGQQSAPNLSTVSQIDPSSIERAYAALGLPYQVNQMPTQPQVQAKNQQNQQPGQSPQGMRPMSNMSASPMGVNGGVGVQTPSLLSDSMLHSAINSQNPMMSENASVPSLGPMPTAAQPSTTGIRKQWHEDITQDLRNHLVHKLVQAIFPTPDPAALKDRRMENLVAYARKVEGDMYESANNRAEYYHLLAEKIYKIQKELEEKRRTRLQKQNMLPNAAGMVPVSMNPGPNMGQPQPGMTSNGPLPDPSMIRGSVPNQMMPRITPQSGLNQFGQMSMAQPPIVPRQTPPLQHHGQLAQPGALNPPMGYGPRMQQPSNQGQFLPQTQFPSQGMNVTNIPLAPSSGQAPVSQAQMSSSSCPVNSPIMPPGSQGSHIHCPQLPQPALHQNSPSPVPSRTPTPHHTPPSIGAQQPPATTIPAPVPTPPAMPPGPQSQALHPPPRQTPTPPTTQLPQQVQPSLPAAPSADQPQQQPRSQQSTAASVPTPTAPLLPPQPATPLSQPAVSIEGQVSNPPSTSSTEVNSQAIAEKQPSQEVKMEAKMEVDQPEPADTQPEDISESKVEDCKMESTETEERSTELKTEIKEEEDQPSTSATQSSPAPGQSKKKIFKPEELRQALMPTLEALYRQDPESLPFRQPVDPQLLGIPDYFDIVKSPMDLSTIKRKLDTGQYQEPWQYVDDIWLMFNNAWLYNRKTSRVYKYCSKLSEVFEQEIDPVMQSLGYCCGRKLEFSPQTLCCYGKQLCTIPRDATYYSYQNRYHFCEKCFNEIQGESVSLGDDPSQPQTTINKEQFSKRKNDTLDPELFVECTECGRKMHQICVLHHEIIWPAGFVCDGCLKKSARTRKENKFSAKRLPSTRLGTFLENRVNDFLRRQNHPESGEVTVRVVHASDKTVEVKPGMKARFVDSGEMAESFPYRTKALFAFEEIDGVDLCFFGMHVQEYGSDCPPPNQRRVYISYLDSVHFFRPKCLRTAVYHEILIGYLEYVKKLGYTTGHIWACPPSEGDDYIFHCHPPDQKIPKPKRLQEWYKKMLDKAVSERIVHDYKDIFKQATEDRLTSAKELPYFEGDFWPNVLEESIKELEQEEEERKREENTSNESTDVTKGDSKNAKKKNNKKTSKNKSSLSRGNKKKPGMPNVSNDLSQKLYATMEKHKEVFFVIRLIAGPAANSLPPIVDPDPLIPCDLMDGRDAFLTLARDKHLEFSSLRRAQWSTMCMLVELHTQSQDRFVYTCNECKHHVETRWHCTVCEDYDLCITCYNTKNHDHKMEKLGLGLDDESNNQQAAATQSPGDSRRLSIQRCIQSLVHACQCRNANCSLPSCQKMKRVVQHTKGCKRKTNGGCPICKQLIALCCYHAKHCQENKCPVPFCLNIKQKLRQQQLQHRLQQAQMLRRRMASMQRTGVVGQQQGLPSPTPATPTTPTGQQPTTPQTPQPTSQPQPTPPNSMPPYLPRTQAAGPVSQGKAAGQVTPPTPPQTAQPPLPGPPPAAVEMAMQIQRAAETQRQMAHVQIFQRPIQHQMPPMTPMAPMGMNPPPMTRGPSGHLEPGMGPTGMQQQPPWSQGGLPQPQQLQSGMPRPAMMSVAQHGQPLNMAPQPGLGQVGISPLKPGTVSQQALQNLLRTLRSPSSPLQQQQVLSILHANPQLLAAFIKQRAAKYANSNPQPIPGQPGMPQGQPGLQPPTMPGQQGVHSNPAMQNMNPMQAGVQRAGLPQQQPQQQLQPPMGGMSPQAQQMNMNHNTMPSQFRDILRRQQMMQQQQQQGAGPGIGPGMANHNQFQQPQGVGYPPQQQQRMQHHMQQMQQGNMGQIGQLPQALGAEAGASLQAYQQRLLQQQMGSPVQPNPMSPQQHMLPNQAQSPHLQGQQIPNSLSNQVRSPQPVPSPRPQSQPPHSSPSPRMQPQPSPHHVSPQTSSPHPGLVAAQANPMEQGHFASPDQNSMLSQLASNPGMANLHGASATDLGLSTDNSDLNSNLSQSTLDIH

With `Cc1cc2c(N3CCCc4cc(-c5ccc(C(=O)NCC#Cc6cc7c(C8CCC(=O)NC8=O)nccc7o6)nc5)nnc43)cc(C3CCOCC3)cc2n(C)c1=O` (stereo not drawn) [Example B84, 5-(8-(1,3-dimethyl-2-oxo-7-(tetrahydro-2H-pyran-4-yl)-1,2-dihydroquinolin-5-yl)-5,6,7,8-tetrahydropyrido[2,3-c]pyridazin-3-yl)-N-(3-(4-(2,6-dioxopiperidin-3-yl)furo [3,2-c]pyridin-2-yl)prop-2-yn-1-yl) picolinamide], in test [1], the Dmax (usually the largest share of the target that was removed) is greater than 80% and the DC50 (commonly the midpoint of the concentration-degradation curve) is less than 1 nM. Moreover, in test [2], the DC50 lay in the range of 100 to 999 nM and the Dmax is less than 20%.

Turning to `Cc1cc(-c2ncc3c(n2)CCCN3c2nc(N3CCOCC3)cc3c2cc(C)c(=O)n3C)cnc1C(=O)NCC#Cc1ccc2occ(C3CCC(=O)NC3=O)c2c1` (stereo not drawn) [Example B71, 5-(5-(1,3-dimethyl-7-morpholino-2-oxo-1,2-dihydro-1,6-naphthyridin-5-yl)-5,6,7,8-tetrahydropyrido[3,2-d]pyrimidin-2-yl)-N-(3-(3-(2,6-dioxopiperidin-3-yl)benzofuran-5-yl)prop-2-yn-1-yl)-3-methylpicolinamide], in test [1], the Dmax was greater than 80% and the DC50 lay within 1 to 9.9 nM. Further, in test [2], the 50% degradation concentration (DC50) was greater than 1000 nM and the Dmax is less than 20%.

With `Cc1cc2c(N3CCCc4nc(-c5ccc(C(=O)NCC#Cc6ccc7occ(C8CCC(=O)NC8=O)c7c6)nc5)ncc43)nc(N3CC4CCC(C3)O4)cc2n(C)c1=O` (stereo not drawn) [Example B115, 5-(5-(7-(8-oxa-3-azabicyclo[3.2.1]octan-3-yl)-1,3-dimethyl-2-oxo-1,2-dihydro-1,6-naphthyridin-5-yl)-5,6,7,8-tetrahydropyrido [3,2-d]pyrimidin-2-yl)-N-(3-(3-(2,6-dioxopiperidin-3-yl)benzofuran-5-yl)prop-2-yn-1-yl)picolinamide], the maximal degradation (Dmax) is 60 to 79% in test [1] and less than 20% in test [2]. Further, the DC50 in test [1] was 1 to 9.9 nM; in test [2], greater than 1000 nM.

In test [1], `CC(C)c1cc(-c2cccc3cc(-c4ccc(C(=O)NCC#Cc5cc(OC6CCC(=O)NC6=O)nn5C)nc4)ncc23)cc2c1n(C)c(=O)n2C` (stereo not drawn) [Example A29, N-(3-(3-((2,6-Dioxopiperidin-3-yl)oxy)-1-methyl-1H-pyrazol-5-yl)prop-2-yn-1-yl)-5-(8-(7-isopropyl-1,3-dimethyl-2-oxo-2,3-dihydro-1H-benzo[d]imidazol-5-yl)isoquinolin-3-yl)picolinamide] displayed a Dmax greater than 80% and a half-maximal degradation concentration (DC50) of 1 to 9.9 nM. In test [2], this molecule registered a DC50 greater than 1000 nM and a Dmax of less than 20%.

As to `[2H]C1COCCC1([2H])c1cc(N2CCCc3nc(-c4ccc(C(=O)NCC#Cc5cc6c(C7CCC(=O)NC7=O)cccc6o5)nc4)ncc32)c2cc(C)c(=O)n(C)c2c1` (stereo not drawn) [Example B23, 5-(5-(1,3-dimethyl-2-oxo-7-(tetrahydro-2H-pyran-4-yl-3,4-d2)-1,2-dihydroquinolin-5-yl)-5,6,7,8-tetrahydropyrido[3,2-d]pyrimidin-2-yl)-N-(3-(4-(2,6-dioxopiperidin-3-yl)benzofuran-2-yl)prop-2-yn-1-yl)picolinamide], the Dmax in test [1] is greater than 80%; in test [2] it was less than 20%. In addition, the DC50 in test [1] is 1 to 9.9 nM; in test [2], 100 to 999 nM.

`Cc1cc2c(-c3cn(C)c(=O)c4cc(-c5ccc(C(=O)NCC#Cc6cc7c(C8CCC(=O)NC8=O)cccc7o6)nc5)ncc34)cc(C3CCOCC3)nc2n(C)c1=O` (stereo not drawn) [Example B160, 5-(8-(6,8-dimethyl-7-oxo-2-(tetrahydro-2H-pyran-4-yl)-7,8-dihydro-1,8-naphthyridin-4-yl)-6-methyl-5-oxo-5,6-dihydro-2,6-naphthyridin-3-yl)-N-(3-(4-(2,6-dioxopiperidin-3-yl)benzofuran-2-yl)prop-2-yn-1-yl)picolinamide]: the results for the Dmax in test [1] and in test [2] were greater than 80% and less than 20%, respectively. For the same molecule, the DC50 is 1 to 9.9 nM in test [1] and greater than 1000 nM in test [2].

As for `CC(C)c1cc(N2CCCc3nc(-c4ccc(C(=O)NCC#Cc5ccc6occ(C7CCC(=O)NC7=O)c6c5)nc4)ncc32)cc2c1n(C)c(=O)n2C` (stereo not drawn) [Example A133, N-(3-(3-(2,6-dioxo-piperidin-3-yl)benzofuran-5-yl)prop-2-yn-1-yl)-5-(5-(7-isopropyl-1,3-dimethyl-2-oxo-2,3-dihydro-1H-benzo [d]imidazol-5-yl)-5,6,7,8-tetrahydro-pyrido[3,2-d]pyrimidin-2-yl)picolinamide], in test [1], the greatest degradation seen (Dmax) was greater than 80% and the DC50 is 1 to 9.9 nM. Further, in test [2], the DC50 is 100 to 999 nM and the greatest degradation seen (Dmax) is less than 20%.

With `Cn1c(=O)n(C)c2c(N3CCOCC3)nc(-c3cccc4cc(-c5ccc(C(=O)NCC#Cc6ccc7occ(C8CCC(=O)NC8=O)c7c6)nc5)ncc34)cc21` (stereo not drawn) [Example A138, 5-(8-(1,3-dimethyl-4-morpholino-2-oxo-2,3-dihydro-1H-imidazo[4,5-c]pyridin-6-yl)isoquinolin-3-yl)-N-(3-(3-(2,6-dioxopiperidin-3-yl)benzofuran-5-yl)prop-2-yn-1-yl)picolinamide], the Dmax in test [1] was greater than 80%; in test [2], less than 20%. Also, the DC50 in test [1] is less than 1 nM; in test [2] it was greater than 1000 nM.

On to `Cc1cc(-c2ncc3c(n2)OCCN3c2ccc3c(c2)n(C)c(=O)n3C)cnc1C(=O)NCC#Cc1cc2c(C3CCC(=O)NC3=O)cccc2o1` (stereo not drawn) [Example A173, 5-(5-(1,3-dimethyl-2-oxo-2,3-dihydro-1H-benzo[d]imidazol-5-yl)-6,7-dihydro-5H-pyrimido[4,5-b][1,4]oxazin-2-yl)-N-(3-(4-(2,6-dioxopiperidin-3-yl)benzofuran-2-yl)prop-2-yn-1-yl)-3-methylpicolinamide], for which, in test [1], the Dmax is greater than 80% and the DC50 was 1 to 9.9 nM. In test [2], this molecule yielded a DC50 greater than 1000 nM and a Dmax of less than 20%.

In test [1], `Cc1cc2c(N3CCCc4nc(-c5ccc(C(=O)NCC#Cc6cc7c(C8CCC(=O)NC8=O)cccc7o6)nc5)ncc43)cc(C3COC3)nc2n(C)c1=O` (stereo not drawn) [Example B163, 5-(5-(6,8-dimethyl-2-(oxetan-3-yl)-7-oxo-7,8-dihydro-1,8-naphthyridin-4-yl)-5,6,7,8-tetrahydropyrido[3,2-d]pyrimidin-2-yl)-N-(3-(4-(2,6-dioxopiperidin-3-yl)benzofuran-2-yl)prop-2-yn-1-yl)picolinamide] gave a Dmax greater than 80% and a DC50 of less than 1 nM. In test [2], this molecule had a DC50 greater than 1000 nM and a Dmax of less than 20%.

Regarding `Cc1cc2c(N3CCCc4nc(-c5ccc(C(=O)NCC#Cc6ccc7occ(C8CCC(=O)NC8=O)c7c6)nc5)ccc43)cc(C3CCOCC3)cc2n(C)c1=O` (stereo not drawn) [Example B127, 5-(5-(1,3-dimethyl-2-oxo-7-(tetrahydro-2H-pyran-4-yl)-1,2-dihydroquinolin-5-yl)-5,6,7,8-tetrahydro-1,5-naphthyridin-2-yl)-N-(3-(3-(2,6-dioxopiperidin-3-yl)benzofuran-5-yl)prop-2-yn-1-yl)picolinamide], in test [1], the Dmax was greater than 80% and the 50% degradation concentration (DC50) is 1 to 9.9 nM. Also, in test [2], the DC50 was greater than 1000 nM and the greatest degradation seen (Dmax) is less than 20%.

In test [1], `Cn1c(=O)n(C)c2cc(N3CCOc4nc(-c5ccc(C(=O)NCC#Cc6ccc7occ(C89CC(C8)C(=O)NC9=O)c7c6)nc5)ncc43)ccc21` [Example A178, 5-(5-(1,3-dimethyl-2-oxo-2,3-dihydro-1H-benzo[d]imidazol-5-yl)-6,7-dihydro-5H-pyrimido[4,5-b][1,4]oxazin-2-yl)-N-(3-(3-(2,4-dioxo-3-azabicyclo [3.1.1]heptan-1-yl)benzofuran-5-yl)prop-2-yn-1-yl)picolinamide] displayed a Dmax of 20 to 39% and a DC50 of 10 to 99 nM. In test [2], this molecule gave a 50% degradation concentration (DC50) greater than 1000 nM and a Dmax of less than 20%.

`Cn1c(=O)n(C)c2cc(-c3cccc4cc(-c5ccc(C(=O)NCC#Cc6ccc7cnn(C8CCC(=O)NC8=O)c7c6)nc5)ncc34)ccc21` (stereo not drawn) [Example A255, 5-(8-(1,3-dimethyl-2-oxo-2,3-dihydro-1H-benzo[d]imidazol-5-yl)isoquinolin-3-yl)-N-(3-(1-(2,6-dioxo-piperidin-3-yl)-1H-indazol-6-yl)prop-2-yn-1-yl)picolinamide]: in test [1], the Dmax is greater than 80% and the DC50 lay within 1 to 9.9 nM. Further, in test [2], the DC50 is greater than 1000 nM and the Dmax was less than 20%.

In test [1], `Cn1c(=O)n(C)c2cc(-c3cccc4cc(-c5ccc(C(=O)NCC#Cc6ccc7nnn(C8CCC(=O)NC8=O)c7c6)nc5)ncc34)ccc21` (stereo not drawn) [Example A163, 5-(8-(1,3-dimethyl-2-oxo-2,3-dihydro-1H-benzo[d]imidazol-5-yl)isoquinolin-3-yl)-N-(3-(1-(2,6-dioxo-piperidin-3-yl)-1H-benzo[d][1,2,3]triazol-6-yl)prop-2-yn-1-yl)picolinamide] yielded a Dmax greater than 80% and a DC50 of less than 1 nM. In test [2], this molecule came in with a DC50 greater than 1000 nM and a Dmax of less than 20%.

Turning to `Cn1c(=O)n(C)c2cc(C3=CC(C)(C)Oc4cc(-c5ccc(C(=O)NCC#Cc6ccc7occ(C8CCC(=O)NC8=O)c7c6)nc5)ncc43)ccc21` (stereo not drawn) [Example A263, 5-(4-(1,3-dimethyl-2-oxo-2,3-dihydro-1H-benzo[d]imidazol-5-yl)-2,2-dimethyl-2H-pyrano[3,2-c]pyridin-7-yl)-N-(3-(3-(2,6-dioxopiperidin-3-yl)benzofuran-5-yl)prop-2-yn-1-yl)picolinamide], in test [1], the greatest degradation seen (Dmax) is greater than 80% and the 50% degradation concentration (DC50) lay within 1 to 9.9 nM. In test [2], the DC50 is greater than 1000 nM and the Dmax is less than 20%.
